Experimental data from patent publication US20250230138A1, “COMPOUNDS HAVING A T-STRUCTURE FORMED BY AT LEAST FOUR CYCLES FOR USE IN THE TREATMENT OF CANCER AND OTHER INDICATIONS” (TheRas, Inc., priority 2022, published 2025).
pIC50: −log10 of the molar value. Where two headings read alike, the source gives them in different places.

Experiments:
pAKT in BT474 cells = test: Cell-based pAKT HTRF assay in BT474 cells; details: BT474 cells, 4 hr incubation, Compounds 10-999, read-out: pAKT inhibition IC50 in BT474 cells
Method in brief: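 Compound titration: 3 μM downward in 3-fold steps, nine points, 4 hr on cells. Detection: lysis, then d2 plus Eu Cryptate antibody mix, room-temperature incubation of 4–24 h, and time-resolved fluorescence read at 615 nm.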

[1] = molecular target: Cys242 in human PIK3CA (157-299) (Homo sapiens (Human), UniProt P42336); test: Covalent modification assay using MALDI-TOF MS; format: biochemical; details: 4 h reaction time point; 3.33 μM protein target, 1:7.5 protein to compound ratio (compounds 1-852)
Sequence of Cys242 in human PIK3CA (157-299) (P42336 157-299): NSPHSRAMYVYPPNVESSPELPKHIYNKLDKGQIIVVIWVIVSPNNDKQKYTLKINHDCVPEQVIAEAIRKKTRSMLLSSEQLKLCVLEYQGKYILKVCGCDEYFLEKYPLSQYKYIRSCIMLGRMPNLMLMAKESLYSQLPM
Method in brief: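 PIK3CA (157-299), 3.33 or 1 μM in 20 mM HEPES, 150 mM NaCl, 2 mM MgCl2, pH 7.3, was incubated with compound at room temperature in the dark for 15 min, 30 min, 2 h or 4 h. Linear MALDI-TOF read-out; % modification = adduct peak height over summed heights of all protein species.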

| SMILES | pIC50 (pAKT in BT474 cells) | pIC50 (pAKT in BT474 cells; Homo sapiens, BT-474) | % of modification [1] |
| --- | --- | --- | --- |
| C=CC(=O)N1CC(n2cc(-c3nc(-c4ccc5c(c4)CNC5=O)c4ccsc4c3-c3ccc(F)cc3OC)cn2)C1 [Compound 282] | > 7.00 |  | A (percent of modification of PIK3CA protein ≥75%) |
| C=CC(=O)N1CCn2nc(-c3nc(-c4cnc5c(c4)CN(C)CC5)c4ccsc4c3-c3ccc(F)cc3OC(C)C)cc2C1 [Compound 283] | > 7.00 |  | A (percent of modification of PIK3CA protein ≥75%) |
| C=CC(=O)N1CCn2nc(-c3nc(-c4cnn(C)c4)c4ccsc4c3-c3ccc(Cl)cc3F)cc2C1 [Compound 284] | 6.00 to 7.00 |  | A (percent of modification of PIK3CA protein ≥75%) |
| CC(C)Oc1cc(F)ccc1-c1c(-c2cc3n(n2)CCN(C(=O)/C=C/CN(C)C)C3)nc(-c2ccc3c(c2)CCNC3=O)c2ccsc12 [Compound 285] | 6.00 to 7.00 |  | B (50%<percent of modification <75%) |
| C=CC(=O)N1CCn2nc(-c3nc(N4CCS(=O)(=O)CC4)c4ccsc4c3-c3ccc(F)cc3OC(C)C)cc2C1 [Compound 286] | < 5.52 |  | A (percent of modification of PIK3CA protein ≥75%) |
| C=CC(=O)N1CCn2nc(-c3nc(-c4ccc5c(c4)CNC5=O)c4ccsc4c3-c3ccc(F)cc3OC(C)C)cc2C1 [Compound 287] | > 7.00 |  | A (percent of modification of PIK3CA protein ≥75%) |
| C=CC(=O)N1CCn2nc(-c3nc(-c4cnc5c(c4)CN(C)CC5)c4ccsc4c3-c3ccc(F)cc3OC)cc2C1 [Compound 288] | > 7.00 |  | A (percent of modification of PIK3CA protein ≥75%) |
| C=CC(=O)N1CCn2nc(-c3nc(-c4cnn(C)c4)c4ccsc4c3-c3c(F)cc(F)cc3OC(C)C)cc2C1 [Compound 289] | > 7.00 |  | A (percent of modification of PIK3CA protein ≥75%) |
| C=CC(=O)N1CCn2nc(-c3nc(-c4cnn(C)c4)c4ccsc4c3-c3ccc(F)cc3Cl)cc2C1 [Compound 291] | > 7.00 |  | A (percent of modification of PIK3CA protein ≥75%) |
| C=CC(=O)N1CCn2nc(-c3nc(-c4cnn(C)c4)c4ccsc4c3-c3c(F)cc(F)cc3F)cc2C1 [Compound 292] | 6.00 to 7.00 |  | A (percent of modification of PIK3CA protein ≥75%) |
| C=C(F)C(=O)N1CCn2nc(-c3nc(-c4ccc5c(c4)CCN(C)C5)c4ccsc4c3-c3ccc(F)cc3OC(C)C)cc2C1 [Compound 293] | > 7.00 |  | A (percent of modification of PIK3CA protein ≥75%) |
| C=C(F)C(=O)N1CCn2nc(-c3nc(-c4ccc5c(c4)CCN(C(C)C)C5)c4ccsc4c3-c3ccc(F)cc3OC(C)C)cc2C1 [Compound 294] | > 7.00 |  | A (percent of modification of PIK3CA protein ≥75%) |
| C=C(F)C(=O)N1CCn2nc(-c3nc(-c4cnn(C)c4)c4ccsc4c3-c3ccc(F)cc3OC(C)C)cc2C1 [Compound 295] | 6.00 to 7.00 |  | B (50%<percent of modification <75%) |
| C=CC(=O)N1CC(n2cc(-c3nc(C4CCN(S(C)(=O)=O)CC4)c4ccsc4c3-c3ccc(F)cc3OC)cn2)C1 [Compound 296] | 5.52 to 6.00 |  | B (50%<percent of modification <75%) |
| C=CC(=O)N1CC(n2cc(-c3nc(C4CCN(C(C)=O)CC4)c4ccsc4c3-c3ccc(F)cc3OC)cn2)C1 [Compound 297] | 5.52 to 6.00 |  | B (50%<percent of modification <75%) |

Further lines, with some results ahead:

| pIC50 (pAKT in BT474 cells) | pIC50 (pAKT in BT474 cells; Homo sapiens, BT-474) | SMILES | % of modification [1] |
| --- | --- | --- | --- |
| 6.00 to 7.00 |  | C=CC(=O)N1CC(n2cc(-c3nc(C4=CCN(C(C)=O)CC4)c4ccsc4c3-c3ccc(F)cc3OC)cn2)C1 [Compound 298] | A (percent of modification of PIK3CA protein ≥75%) |
| 6.00 to 7.00 |  | C=CC(=O)N1CC(n2cc(-c3nc(C4=CCN(S(C)(=O)=O)CC4)c4ccsc4c3-c3ccc(F)cc3OC)cn2)C1 [Compound 299] | A (percent of modification of PIK3CA protein ≥75%) |
| > 7.00 |  | C=CC(=O)N1CCn2nc(-c3nc(-c4ccc5c(c4)CCNC5=O)c4ccsc4c3-c3ccc(F)cc3OC3CC3)cc2C1 [Compound 302] | A (percent of modification of PIK3CA protein ≥75%) |
| 6.00 to 7.00 |  | C=C(F)C(=O)N1CCn2nc(-c3nc(-c4cncc(C#N)c4)c4ccsc4c3-c3ccc(F)cc3OC(C)C)cc2C1 [Compound 303] | A (percent of modification of PIK3CA protein ≥75%) |
| 6.00 to 7.00 |  | C=C(F)C(=O)N1CCn2nc(-c3nc(-c4ccc5c(c4)CCNC5=O)c4ccsc4c3-c3ccc(F)cc3OCC)cc2C1 [Compound 304] | B (50%<percent of modification <75%) |
| 6.00 to 7.00 |  | C=C(F)C(=O)N1CCn2nc(-c3nc(-c4ccc5c(c4)CCN(C)C5)c4ccsc4c3-c3ccc(F)cc3OCC)cc2C1 [Compound 305] | B (50%<percent of modification <75%) |
| > 7.00 |  | C=C(F)C(=O)N1CCn2nc(-c3nc(-c4cnc5c(c4)CN(C)CC5)c4ccsc4c3-c3ccc(F)cc3OC(C)C)cc2C1 [Compound 306] | B (50%<percent of modification <75%) |
| 6.00 to 7.00 |  | C=C(F)C(=O)N1CCn2nc(-c3nc(-c4ccc(=O)[nH]c4)c4ccsc4c3-c3ccc(F)cc3OC(C)C)cc2C1 [Compound 307] | A (percent of modification of PIK3CA protein ≥75%) |
| 6.00 to 7.00 |  | C=C(F)C(=O)N1CCn2nc(-c3nc(-c4ccc5c(c4)[C@@H](O)CC5)c4ccsc4c3-c3ccc(F)cc3OC(C)C)cc2C1 [Compound 308] | A (percent of modification of PIK3CA protein ≥75%) |
| > 7.00 |  | C=CC(=O)N1CCc2nc(-c3nc(-c4cnc5c(c4)CN(C)CC5)c4ccsc4c3-c3c(F)cc(F)cc3OC(C)C)sc2C1 [Compound 309] | A (percent of modification of PIK3CA protein ≥75%) |
| > 7.00 |  | C=C(F)C(=O)N1CCn2nc(-c3nc(-c4cnc5c(c4)CN(C)CC5)c4ccsc4c3-c3c(F)cc(F)cc3OC(C)C)nc2C1 [Compound 310] | A (percent of modification of PIK3CA protein ≥75%) |
|  | > 7.00 | C=CC(=O)N1CCc2nc(-c3nc(-c4ccc5c(c4)CNC5=O)c4ccsc4c3-c3c(F)cc(F)cc3OC(C)C)sc2C1 [Compound 311, 5-[7-(2,4-difluoro-6-isopropoxy-phenyl)-6-(5-prop-2-enoyl-6,7-dihydro-4H-thiazolo[5,4-c]pyridin-2-yl)thieno[3,2-c]pyridin-4-yl]isoindolin-1-one] | A (percent of modification of PIK3CA protein ≥75%) |
| > 7.00 |  | C=CC(=O)N1CCc2nc(-c3nc(-c4ccc5c(c4)CCN(C)C5)c4ccsc4c3-c3c(F)cc(F)cc3OC(C)C)sc2C1 [Compound 312] | A (percent of modification of PIK3CA protein ≥75%) |
| > 7.00 |  | C=CC(=O)N1CCn2nc(-c3nc(-c4cnn(C)c4)c4ccsc4c3-c3ccc(F)cc3OC(C)C)c(OC)c2C1 [Compound 313] | A (percent of modification of PIK3CA protein ≥75%) |
| > 7.00 |  | C=C(F)C(=O)N1CCn2nc(-c3nc(-c4ccc5c(c4)CCN(C)C5)c4ccsc4c3-c3c(F)cc(F)cc3OC(C)C)nc2C1 [Compound 314] | A (percent of modification of PIK3CA protein ≥75%) |
| > 7.00 |  | C=C(F)C(=O)N1CCn2nc(-c3nc(-c4ccc5c(c4)CNC5=O)c4ccsc4c3-c3c(F)cc(F)cc3OC(C)C)nc2C1 [Compound 315] | A (percent of modification of PIK3CA protein ≥75%) |
| > 7.00 |  | C=CC(=O)N1CCc2ncc(-c3nc(-c4ccc5c(c4)CNC5=O)c4ccsc4c3-c3ccc(F)cc3OC(C)C)cc2C1 [Compound 316] | A (percent of modification of PIK3CA protein ≥75%) |
|  | > 7.00 | C=CC(=O)N1CCn2nc(-c3nc(-n4cc(C)cn4)c4ccsc4c3-c3ccc(F)cc3OC(C)C)cc2C1 [Compound 317, 1-[2-[7-(4-fluoro-2-isopropoxy-phenyl)-4-(4-methylpyrazol-1-yl)thieno[3,2-c]pyridin-6-yl]-6,7-dihydro-4H-pyrazolo[1,5-a]pyrazin-5-yl]prop-2-en-1-one] | A (percent of modification of PIK3CA protein ≥75%) |
| > 7.00 |  | C=CC(=O)N1CC[C@H](n2ccc(-c3nc(-c4cnn(C)c4)c4ccsc4c3-c3ccc(F)cc3OC(C)C)n2)C1 [Compound 318] | A (percent of modification of PIK3CA protein ≥75%) |
| > 7.00 |  | C=CC(=O)N1CCc2ncc(-c3nc(-c4cnc5c(c4)CN(C)CC5)c4ccsc4c3-c3ccc(F)cc3OC(C)C)cc2C1 [Compound 319] | A (percent of modification of PIK3CA protein ≥75%) |
| > 7.00 |  | C=CC(=O)N1CCn2nc(-c3nc(-c4cnn(C)c4)c4ccsc4c3-c3ccc(F)cc3OC(C)C)c(C)c2C1 [Compound 320] | A (percent of modification of PIK3CA protein ≥75%) |
| > 7.00 |  | C=C(F)C(=O)N1CCn2nc(-c3nc(-c4ccc5c(c4)CNC5=O)c4ccsc4c3-c3c(F)cc(F)cc3OCC)cc2C1 [Compound 321] | B (50%<percent of modification <75%) |
|  | < 5.52 | C=CC(=O)N1CCn2nc(-c3nc(-c4cnn(C)c4)ccc3-c3ccc(F)cc3OCCOC)cc2C1 [Compound 322, 1-[2-[3-[4-fluoro-2-(2-methoxyethoxy)phenyl]-6-(1-methylpyrazol-4-yl)-2-pyridyl]-6,7-dihydro-4H-pyrazolo[1,5-a]pyrazin-5-yl]prop-2-en-1-one] | C (25%≤percent of modification <50%) |
